Reference: PMC8678048 (Frontiers in Microbiology, 2021)
Positions of bridges follow the written chain, without caps; N, C: chain ends. Residues, ends and D or L forms follow the SMILES beside them.

Target: ASFV pS273R protease (African swine fever virus, UniProt Q00946)
Type: biochemical

Sequence of ASFV pS273R protease (Q00946 whole entry, looked up): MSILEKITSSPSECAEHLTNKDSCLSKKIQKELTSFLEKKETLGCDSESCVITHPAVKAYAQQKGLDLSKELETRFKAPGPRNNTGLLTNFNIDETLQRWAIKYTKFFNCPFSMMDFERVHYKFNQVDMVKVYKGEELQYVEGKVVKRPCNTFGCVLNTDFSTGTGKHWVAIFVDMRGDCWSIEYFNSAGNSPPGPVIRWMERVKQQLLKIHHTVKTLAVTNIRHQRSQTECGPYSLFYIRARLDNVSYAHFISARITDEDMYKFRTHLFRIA

CC[C@H](C)[C@@H]1NC(=O)CNC(=O)[C@H](CO)NC(=O)[C@@H]2CSSC[C@@H](C(=O)N[C@@H](Cc3ccc(O)cc3)C(=O)O)NC(=O)[C@H](CCCCN)NC(=O)[C@@H]3CSSC[C@H](NC(=O)[C@H](CCC(N)=O)NC(=O)[C@H](Cc4ccc(O)cc4)NC(=O)[C@H](CCC(N)=O)NC(=O)[C@H](CC(N)=O)NC(=O)[C@H](Cc4ccccc4)NC(=O)[C@@H]4CCCN4C(=O)[C@@H](NC(=O)CNC(=O)[C@H](Cc4ccc(O)cc4)NC(=O)CN)CSSC[C@H](NC(=O)[C@H](Cc4ccc(O)cc4)NC(=O)CNC(=O)CNC(=O)[C@H](CCCCN)NC(=O)[C@H](Cc4ccc(O)cc4)NC(=O)CNC(=O)[C@H](CCCNC(=N)N)NC1=O)C(=O)N[C@@H](CCCCN)C(=O)NCC(=O)N[C@@H]([C@@H](C)O)C(=O)N[C@@H](Cc1ccccc1)C(=O)N[C@@H](CCCCN)C(=O)N[C@@H](CCC(N)=O)C(=O)N[C@@H]([C@@H](C)O)C(=O)N3)C(=O)N[C@@H](Cc1c[nH]cn1)C(=O)N[C@@H](CO)C(=O)N[C@@H](Cc1c[nH]cn1)C(=O)N2 [OPTX-1] (H-GYGCPFNQYQCHSHCSGIRGYKGGYCKGTFKQTCKCY-OH; disulfide 4-26, 11-34, 15-36 (inferred); N-terminus and C-terminus assumed)
mode of inhibition of pS273R protease: competitive inhibitor of the pS273R protease
